Laboratory results: PMC4679714, “Influence of a novel, versatile bifunctional chelator on theranostic properties of a minigastrin analogue” (EJNMMI Research, 2015)
Each block holds one compound with its values, some of them ahead of it. Square brackets hold non-standard residues; d marks the D form. Peptide text beside a SMILES is read from it. * marks the point of attachment. X1 = O=C(O)CN1CCN(CC(=O)O)CC(CCCCCCCCCC(=O)*)(N(CC(=O)O)CC(=O)O)C1

Tests used:
[1] = biological target: T1, human CCK2 receptor (Homo sapiens, UniProt P32239); assay: Receptor binding affinity (IC50), displacement of 177Lu-labelled CP04 from CCK2+ cell membranes; details: radioligand 177Lu-labelled CP04, 1 h at 37 °C
T1 construct: expressed in transfected cells; host or cells: A431-309CCK2R (A431 cells transfected with CCK2R); membranes released by hypoosmotic lysis
T1 sequence (P32239 1-447): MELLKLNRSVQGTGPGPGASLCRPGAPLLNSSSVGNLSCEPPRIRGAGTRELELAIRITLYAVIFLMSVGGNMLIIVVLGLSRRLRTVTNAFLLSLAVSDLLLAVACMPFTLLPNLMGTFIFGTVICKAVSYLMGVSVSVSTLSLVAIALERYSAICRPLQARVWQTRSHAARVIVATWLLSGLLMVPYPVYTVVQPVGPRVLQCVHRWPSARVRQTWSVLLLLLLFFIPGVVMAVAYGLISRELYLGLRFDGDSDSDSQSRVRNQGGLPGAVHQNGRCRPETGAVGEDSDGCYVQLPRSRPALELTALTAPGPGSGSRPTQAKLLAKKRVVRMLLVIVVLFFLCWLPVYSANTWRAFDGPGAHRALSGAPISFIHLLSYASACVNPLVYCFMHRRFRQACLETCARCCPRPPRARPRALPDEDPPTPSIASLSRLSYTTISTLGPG
Method: A human transfected cell line was used with two different expression properties of the cholecystokinin (CCK) receptor: CCK2+ (A431-309CCK2R; receptor-positive cells) and CCK2− (A431-609; mock transfected control cells) cells.
In vitro binding affinities of AAZTA-MG were determined by using CCK2+ cell membranes and ^177Lu-labelled CP04 (a minigastrin analogue with high affinity to the CCK2 receptor) as radioligand incubated with increasing concentrations of the competitor. As competitor AAZTA-MG and [^natLu]- and [^natGa]-AAZTA-MG were used. The latter were prepared by incubating 10 μg AAZTA-MG with a tenfold molar excess of Lu-chloride in ascorbic acid buffer and 100 μl Ga-bromide in sodium acetate buffer for 10 min, respectively.
The 96-well plates (MulitScreen Filter Plates, HTS) were washed with 250 μL 10 mM TRIS buffered saline (pH 7.3). CCK2 cells were diluted in 20 mM HEPES buffer containing […] MgCl2—in this hypoosmotic solution the cells were cracked releasing free membranes.

[2] = parameters: method as in doi:10.1002/ejic.201201108; details: cited from earlier work

IC50 ([1]; listed as [^natGa]-AAZTA-MG): 8.18 ± 3.16 nM
Compound: CSCC[C@H](NC(=O)[C@H](Cc1c[nH]c2ccccc12)NC(=O)CNC(=O)[C@H](Cc1ccc(O)cc1)NC(=O)[C@H](C)NC(=O)[C@@H](CCC(=O)O)NC(=O)CCCCCCCCCC1(N(CC(=O)O)CC(=O)O)CN(CC(=O)O)CCN(CC(=O)O)C1)C(=O)N[C@@H](CC(=O)O)C(=O)N[C@@H](Cc1ccccc1)C(N)=O [[^natGa]AAZTA-MG, metal not drawn] (X1-[dE]AYGWMDF-NH2)

IC50 [1]: 10 nM
Compound: CSCC[C@H](NC(=O)[C@H](Cc1c[nH]c2ccccc12)NC(=O)CNC(=O)[C@H](Cc1ccc(O)cc1)NC(=O)[C@H](C)NC(=O)[C@@H](CCC(=O)O)NC(=O)CCCCCCCCCC1(N(CC(=O)O)CC(=O)O)CN(CC(=O)O)CCN(CC(=O)O)C1)C(=O)N[C@@H](CC(=O)O)C(=O)N[C@@H](Cc1ccccc1)C(N)=O [AAZTA-MG, [AAZTA^0, D-Glu^1, desGlu^2–6]-minigastrin] (X1-[dE]AYGWMDF-NH2)

The remaining lines, values behind:

Compound: CSCC[C@H](NC(=O)[C@H](Cc1c[nH]c2ccccc12)NC(=O)CNC(=O)[C@H](Cc1ccc(O)cc1)NC(=O)[C@H](C)NC(=O)[C@@H](CCC(=O)O)NC(=O)CCCCCCCCCC1(N(CC(=O)O)CC(=O)O)CN(CC(=O)O)CCN(CC(=O)O)C1)C(=O)N[C@@H](CC(=O)O)C(=O)N[C@@H](Cc1ccccc1)C(N)=O [[^natLu]AAZTA-MG, metal not drawn] (X1-[dE]AYGWMDF-NH2)
IC50 ([1]; listed as [^natLu]): 9.44 ± 4.57 nM

Compound: CC1(N(CC(=O)O)CC(=O)O)CN(CC(=O)O)CCN(CC(=O)O)C1 [AAZTA, 6-[Bis(carboxymethyl)amino]-1,4-bis(carboxymethyl)-6-methyl-1,4-diazepane]
Stability constant (logK) for Ga^3+ [2]: 22.18
Stability constant (logK) for In^3+ [2]: 29.58

Compound: O=C(O)CN1CCN(CC(=O)O)CCN(CC(=O)O)CCN(CC(=O)O)CC1 [^68Ga-DOTA, 1,4,7,10-tetraazacyclododecane-1,4,7,10-tetraacetic acid, metal not drawn]
Stability constant (logK) for Ga^3+ [2]: 21.3
Stability constant (logK) for In^3+ [2]: 23.9
